These results are taken from US10350177B2, “Antibacterial S-heterosubstituted disulfides” (priority 2007, dated 2019).

Holding throughout (type): cell-based
For experiment [1], the system named is Live Vaccine Strain of Francisella tularensis. As to the kind of experiment: microbe, parasite or virus in culture.
For experiment [2], the system named is Staphylococcus aureus (ATCC-849). The experiment is described as follows: MIC by agar dilution against Staphylococcus aureus. To be noted: for MIC: ATCC849. On the technique in general: Agar dilution tests growth on a series of plates holding different concentrations.
For experiment [3], the system named is Methicillin Resistant Staphylococcus aureus (ATCC-919). As to the kind of experiment: MIC by agar dilution against methicillin-resistant Staphylococcus aureus. The note with it: for MIC: ATCC 919 / MRSA.

Converted amounts (≈) assume the structure as drawn.

Take `O=C(O)c1cn(C2CC2)c2cc(N3CCNCC3)c(F)cc2c1=O` [Ciprofloxacin, reference compound]: in experiment [1], the MIC was found to be 16 µg/mL (≈ 48.3 µM).
As for `CC1(C)S[C@@H]2[C@H](NC(=O)Cc3ccccc3)C(=O)N2[C@H]1C(=O)O` [Penicillin G, reference compound], the “MIC S.A.” value in experiment [2] worked out at 0.125 µg/mL (≈ 0.374 µM). In addition, the “MIC MRSA” value in experiment [3] worked out at 16 µg/mL (≈ 47.8 µM).
In the case of `CCN(CC)SSN(CC)CC` [XVII], the MIC was found to be 2 µg/mL (≈ 9.6 µM) in experiment [2], 2 µg/mL (≈ 9.6 µM) in experiment [3] and 16 µg/mL (≈ 76.8 µM) in experiment [1].
For `CCCSSSSCCC` [XI], the MIC was 32 µg/mL (≈ 149 µM) in experiment [2], 32 µg/mL (≈ 149 µM) in experiment [3] and 1 µg/mL (≈ 4.66 µM) in experiment [1].
For the compound `c1ccc(SSSSc2ccccc2)cc1` [XV], the MIC amounted to 8 µg/mL (≈ 28.3 µM) in experiment [2], 8 µg/mL (≈ 28.3 µM) in experiment [3] and 2 µg/mL (≈ 7.08 µM) in experiment [1].
Take `CC(C)CN(CC(C)C)SSN(CC(C)C)CC(C)C` [XX]: the MIC in experiment [2] was found to be 16 µg/mL (≈ 49.9 µM); in experiment [3] it was 16 µg/mL (≈ 49.9 µM); in experiment [1], 1 µg/mL (≈ 3.12 µM).
`CCC(C)OSSOC(C)CC` (stereo not drawn) [IV]: the values for the MIC in experiment [2], in experiment [3] and in experiment [1] were 16 µg/mL (≈ 76.1 µM), 8 µg/mL (≈ 38 µM) and 16 µg/mL (≈ 76.1 µM), respectively.
For `CCC(C)NSSNC(C)CC` (stereo not drawn) [IX], the MIC in experiment [2] is 16 µg/mL (≈ 76.8 µM); in experiment [3], 16 µg/mL (≈ 76.8 µM); in experiment [1], 8 µg/mL (≈ 38.4 µM).
Consider `CCCNSSNCCC` [VI], for which the MIC in experiment [2] came to 8 µg/mL (≈ 44.4 µM); in experiment [3], 4 µg/mL (≈ 22.2 µM); in experiment [1], 16 µg/mL (≈ 88.7 µM).
`CCCCNSSNCCCC` [VIII]: the MIC is 8 µg/mL (≈ 38.4 µM) in experiment [2], 32 µg/mL (≈ 154 µM) in experiment [3] and 4 µg/mL (≈ 19.2 µM) in experiment [1].
As to `CCCOSSOCCC` [I], the MIC in experiment [2] was found to be 32 µg/mL (≈ 176 µM); in experiment [3], 32 µg/mL (≈ 176 µM); in experiment [1] it was 16 µg/mL (≈ 87.8 µM).
As for `c1ccc(OSSOc2ccccc2)cc1` [V], the MIC in experiment [2] came to 2 µg/mL (≈ 7.99 µM); in experiment [3], 2 µg/mL (≈ 7.99 µM); in experiment [1], 1 µg/mL (≈ 3.99 µM).
`CN(C)SSN(C)C` [XVI]: the MIC in experiment [2] turned out to be 0.25 µg/mL (≈ 1.64 µM); in experiment [3], 0.5 µg/mL (≈ 3.28 µM); in experiment [1], 8 µg/mL (≈ 52.5 µM).
The like results for `C=CCN(CC=C)SSN(CC=C)CC=C` [XIX] were, in that order, 1 µg/mL (≈ 3.9 µM), 0.5 µg/mL (≈ 1.95 µM) and 16 µg/mL (≈ 62.4 µM).
As for `CCCCSSSSCCCC` [XIII], the MIC was determined as 64 µg/mL (≈ 264 µM) in experiment [2], 32 µg/mL (≈ 132 µM) in experiment [3] and 4 µg/mL (≈ 16.5 µM) in experiment [1].
As to `CCCCOSSOCCCC` [III], the MIC in experiment [2] worked out at 0.25 µg/mL (≈ 1.19 µM); in experiment [3] it was 8 µg/mL (≈ 38 µM); in experiment [1], 4 µg/mL (≈ 19 µM).
The like results for `CCN(SSN(C(C)C)C(C)C)C(C)C` [XVIII] were, in that order, 2 µg/mL (≈ 7.98 µM), 1 µg/mL (≈ 3.99 µM) and 32 µg/mL (≈ 128 µM).
Regarding `CC(C)OSSOC(C)C` [II], the MIC in experiment [2] was determined as 1 µg/mL (≈ 5.49 µM); in experiment [3], 0.5 µg/mL (≈ 2.74 µM); in experiment [1] it was 4 µg/mL (≈ 21.9 µM).
Regarding `CC(C)NSSNC(C)C` [VII], the MIC turned out to be 32 µg/mL (≈ 177 µM) in experiment [2], 32 µg/mL (≈ 177 µM) in experiment [3] and 2 µg/mL (≈ 11.1 µM) in experiment [1].
In the case of `CCC(C)SSSSC(C)CC` (stereo not drawn) [XIV], the MIC in experiment [2] was determined as 32 µg/mL (≈ 132 µM); in experiment [3] it was 64 µg/mL (≈ 264 µM); in experiment [1], 16 µg/mL (≈ 66 µM).
With `CC(C)SSSSC(C)C` [XII], the values for the MIC in experiment [2], in experiment [3] and in experiment [1] were 32 µg/mL (≈ 149 µM), 32 µg/mL (≈ 149 µM) and 8 µg/mL (≈ 37.3 µM), respectively.
For the compound `c1ccc(NSSNc2ccccc2)cc1` [X], the MIC came out at 4 µg/mL (≈ 16.1 µM) in experiment [2], 4 µg/mL (≈ 16.1 µM) in experiment [3] and 0.5 µg/mL (≈ 2.01 µM) in experiment [1].
